In ChEMBL document CHEMBL1201862, “PubChem BioAssay data set” (2004):
Active and inactive are the calls of the source.

What was measured:
[1] = A cytotoxicity screen of small molecule inhibitors of the PhoP region in Salmonella typhi identified in the primary screen. [Related pubchem assays: 1850, 1864, 1985 ]; assay type: functional
[2] = blockers of HIV-1 envelope-mediated cell-cell fusion – cherry-pick, dose response (AID 652057); assay type: functional, cell-based
[3] = off-target signal loss in HeLa-CEM21 co-culture – HeLa F-luc CTL cells, cherry-picked, counter-screen for HIV-1 Env fusion inhibitor project, dose response (AID 652040); assay type: functional, cell-based;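 note: potency for signal decrease marking cytotoxic or nonspecific inhibition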
[4] = HIV-1 AD8 envelope cell-cell fusion blockers – cherry-pick, dose response (AID 652062); assay type: functional, cell-based;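 note: luciferase signal from cell-cell fusion driven by HIV-1 clade B AD8 Env; potency is for inhibitors of fusion seen as a drop in luminescence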
Estrogen receptor = molecular target: T1, Estrogen receptor (Homo sapiens, UniProt P03372);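 note: potency for inhibiting coactivator peptide recruitment to the receptor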
T1 sequence (P03372 whole entry): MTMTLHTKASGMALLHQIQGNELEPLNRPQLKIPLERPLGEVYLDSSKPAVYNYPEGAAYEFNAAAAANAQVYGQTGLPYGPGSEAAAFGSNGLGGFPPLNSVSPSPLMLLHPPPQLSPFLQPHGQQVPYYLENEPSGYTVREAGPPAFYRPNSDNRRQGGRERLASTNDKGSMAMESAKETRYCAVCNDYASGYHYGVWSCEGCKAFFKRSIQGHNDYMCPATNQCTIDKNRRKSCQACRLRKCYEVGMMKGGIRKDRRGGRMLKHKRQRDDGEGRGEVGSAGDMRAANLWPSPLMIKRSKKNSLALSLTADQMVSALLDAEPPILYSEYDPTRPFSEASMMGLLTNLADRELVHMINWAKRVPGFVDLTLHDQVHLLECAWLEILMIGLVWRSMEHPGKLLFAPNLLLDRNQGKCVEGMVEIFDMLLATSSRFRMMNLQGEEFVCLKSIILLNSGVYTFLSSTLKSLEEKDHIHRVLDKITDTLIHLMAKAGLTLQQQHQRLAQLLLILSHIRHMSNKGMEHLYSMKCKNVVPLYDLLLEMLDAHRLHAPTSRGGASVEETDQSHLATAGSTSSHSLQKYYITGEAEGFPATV

H4 = test: Luminescence Cell-Based Dose Response HTS to Identify Activators of 5'UTR Stem-Loop Driven Prion Protein mRNA Translation in H4 Neuroglioblastoma Cells. [Related pubchem assays: 1829 (Project Summary), 1814 (Primary HTS)]; assay type: functional; conditions: Homo sapiens
[5] = Luminescence Cell-Based Dose Response HTS to Identify Activators of Luciferase Translation or Activity in H4 […] Cells. [Related pubchem assays: 1829 (Project Summary), 1814 (Primary HTS)]; assay type: functional
[6] = Luminescence Cell-Based Dose Response to Identify Activators of 5'UTR Stem-Loop Driven Prion Protein mRNA Translation in H4-C Neuroglioblastoma Cells. [Related pubchem assays: 1829 (Project Summary), 1814 (Primary HTS)]; assay type: functional
[7] = Luminescence Cell-Based Dose Confirmation to Identify Activators of 5'UTR Stem-Loop Driven Alpha-Synuclein mRNA Translation in H4 Neuroglioblastoma Cells. [Related pubchem assays: 1829 (Project Summary), 1814 (Primary HTS)]; assay type: functional
[8] = Luminescence Cell-Based Dose Response to Identify Activators of Luciferase Translation or Activity in H4-C Neuroglioblastoma Cells. [Related pubchem assays: 1829 (Project Summary), 1814 (Primary HTS)]; assay type: functional
[9] = A Cell Based Secondary Assay To Explore Cytotoxicity of Compounds that Sensitize Mycobacterium Tuberculosis to Beta-Lactam Antibiotics.; assay type: functional
[10] = NIH3T3 cell viability loss – ATP luminescence, mouse fibroblasts, counter-screen, dose response (AID 2010); assay type: functional, cell-based;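 note: cells exposed to compound for about 90 hours before reading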
[11] = Trypanosoma cruzi growth suppression in host cells – NIH3T3 host cells, beta-gal luminescence, confirmation (AID 2044); assay type: functional, cell-based;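 note: intracellular parasites grown in NIH/3T3 mouse fibroblasts as host cells; luminescent beta-galactosidase reporter signal from transgenic T. cruzi replicating inside host cells; inhibitors lower the luminescence signal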
[12] = molecular target: T2, Sentrin-specific protease 8 (Homo sapiens, UniProt Q96LD8); assay type: functional
T2 sequence (Q96LD8 whole entry): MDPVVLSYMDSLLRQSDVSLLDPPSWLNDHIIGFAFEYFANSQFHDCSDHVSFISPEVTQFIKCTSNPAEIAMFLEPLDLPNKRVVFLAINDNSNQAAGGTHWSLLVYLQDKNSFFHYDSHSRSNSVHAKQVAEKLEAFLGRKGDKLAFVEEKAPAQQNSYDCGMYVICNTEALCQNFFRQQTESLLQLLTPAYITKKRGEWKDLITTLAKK

[13] = molecular target: T2, Sentrin-specific protease 8; assay type: functional; remark: listed apart in the source

O=C(c1ccc2c3c(cccc13)CC2)C1CCCN(Cc2ncc[nH]2)C1 (stereo not given)
EC50 [1]: > 50 µM (active)

O=C(CN1CCCN(Cc2ccc(F)cc2Cl)C1=O)NC1CCCCCCC1
AC50 [2]: 30.1 µM (active) | AC50 [3]: > 70 µM (inactive) | AC50 [4]: 44.3 µM (active)

O=C(COC(=O)CC1CCCC1)Nc1cc2c(cc1Cl)C(=O)c1ccccc1C2=O
IC50 (Estrogen receptor): 22.3 µM (active) | EC50 (H4): 21.7 µM (active) | EC50 [5]: < 0.1 µM (inconclusive) | EC50 [6]: 2.27 µM (active) | EC50 [7]: 0.497 µM (active) | EC50 [8]: 0.438 µM (active)

Cc1onc(-c2ccccc2Cl)c1C(=O)NCc1cccnc1
IC50 (Estrogen receptor): > 50 µM (not active)

O=C(COC(=O)CCOc1ccccc1)NCc1ccco1
IC50 (Estrogen receptor): 16.6 µM (active)

CCSc1nnc(NC(=O)C2Cc3ccccc3CN2C(=O)c2ccco2)s1 (stereo not given)
IC50 (Estrogen receptor): 7.47 µM (active) | CC50 [9]: > 40 µM (active)

COc1ccc(N(CCCN2C(=O)c3cccc4cccc(c34)C2=O)C(=O)c2cccnc2)cc1
EC50 [10]: > 60 µM (not active) | EC50 [1]: > 50 µM (active) | EC50 [11]: 0.666 µM (active)

CCn1cnc2cc(NCc3ccc(Br)cc3)ccc21
EC50 [1]: > 50 µM (active)

O=S1(=O)NC2c3ccccc3CC2O1 (stereo not given)
IC50 [12]: 9.78 µM (active) | IC50 [13]: 19.5 µM (active)
